Key:
[1] = tested on: normal cell line (HEK293); assay: MTT cytotoxicity, normal cell line HEK293; assay type: cell-based, human; details: Homo sapiens, HEK293; 10 μM; read-out: Inhibition rate, HEK293
[2] = MTT cytotoxicity, normal cell line HEK293; assay type: cell-based, human; details: human, HEK293 cells (normal cell line); MTT assay, 48 h; normal cell line; CC50; read-out: In vitro cytotoxicity IC50, HEK293
[3] = tested on: human chronic myeloid leukaemia cells (K562); assay: MTT antiproliferative assay, K562; assay type: cell-based; details: for inhibition at 10 µM: K562, 10 μM, read-out: Inhibition rate, K562; for IC50: K562, 48 h, MTT assay, 48 h, read-out: In vitro cytotoxicity IC50, K562
Method: (§1) A549, PC-3, HepG2 and K562 cells were purchased from the Kunming cell bank of the Chinese academy of sciences. All cell lines were cultured in DMEM or RPMI 1640 complete medium. Logarithmic growth cells were cultured in 96-well plates at a concentration of 10^4 cells per well and pre-cultured for 24 h before adding test compounds. The MTT test with 5-Fluorouracil and Gefitinib as reference compounds were used to evaluate antiproliferative activity of target compounds in four human cancer line cells. For the estimation of the inhibition concentration (IC50), the Graph Pad Prism (GraphPad Software, San Diego, CA) was used.

[4] = tested on: human liver cancer cells (HepG2); assay: MTT antiproliferative assay, HepG2; assay type: cell-based; details: for inhibition at 10 µM: read-out: Inhibition rate, HepG2; for IC50: MTT assay, 48 h, read-out: In vitro cytotoxicity IC50, HepG2
Method: as §1

[5] = tested on: human non-small cell lung cancer cells (A549); assay: MTT antiproliferative assay, A549; assay type: cell-based; details: for inhibition at 10 µM: A549, 10 μM, read-out: Inhibition rate, A549; for IC50: A549, 48 h, MTT assay, 48 h, read-out: In vitro cytotoxicity IC50, A549
Method: as §1

[6] = tested on: human prostate cancer cells (PC-3); assay: MTT antiproliferative assay, PC-3; assay type: cell-based; details: Homo sapiens; for IC50: 48 h, MTT assay, read-out: In vitro cytotoxicity IC50, PC-3; for inhibition at 10 µM: read-out: Inhibition rate, PC-3
Method: as §1

| SMILES | melting point [°C] | inhibition at 10 µM [1] [%] | IC50 at 48 h [2] [µM] | inhibition at 10 µM [3] [%] | IC50 [3] [µM] | inhibition at 10 µM [4] [%] | IC50 [4] [µM] | inhibition at 10 µM [5] [%] | IC50 [5] [µM] | IC50 [6] [µM] | inhibition at 10 µM [6] [%] |
| --- | --- | --- | --- | --- | --- | --- | --- | --- | --- | --- | --- |
| Nc1ccc(-c2nnc(SCC(=O)Nc3cc(-c4c[nH]c5ccccc45)n[nH]3)n2N)cc1 [Compound 11l, N-(3-(1H-indol-3-yl)-1H-pyrazol-5-yl)-2-((4-amino-5–(4-aminophenyl)-4H-1,2,4-triazol-3-yl)thio)acetamide] | 213 to 215 | 79.6 ± 2.23 | 1.38 ± 1.17 | 99 ± 0.2 | 0.363 ± 0.1 | 93.5 ± 1.56 | 1.37 ± 0.57 | 96.7 ± 0.847 | 1.73 ± 0.3 | 2.88 ± 0.1 | 71.9 ± 4.55 |
| Nn1c(SCC(=O)Nc2cc(-c3c[nH]c4ccccc34)n[nH]2)nnc1-c1ccc(Br)cc1 [Compound 11m, N-(3-(1H-indol-3-yl)-1H-pyrazol-5-yl)-2-((4-amino-5–(4-bromophenyl)-4H-1,2,4-triazol-3-yl)thio)acetamide] | 270 to 272 | 54.2 ± 5.97 | 5.81 ± 0.88 | 98.5 ± 0.434 | 2.57 ± 0.43 | 60.9 ± 7.02 | 10.7 ± 5.21 | 71.7 ± 5.61 | 5.81 ± 0.69 | 21.3 ± 2.75 | 32.8 ± 6.5 |
| Nn1c(SCC(=O)Nc2cc(-c3c[nH]c4ccccc34)n[nH]2)nnc1-c1ccc(F)cc1 [Compound 11p, N-(3-(1H-indol-3-yl)-1H-pyrazol-5-yl)-2-((4-amino-5–(4-fluorophenyl)-4H-1,2,4-triazol-3-yl)thio)acetamide] | 209 to 212 | 5.33 ± 14.9 | 28.9 ± 0.52 | 11.7 ± 0.639 | 33.2 ± 4.95 | 22.8 ± 2.22 | 19.3 ± 6.15 | 23.9 ± 3.03 | 93.9 ± 7.47 | 33.3 ± 5.94 | 17.1 ± 1.22 |

Continued, in another order:

| melting point [°C] | SMILES | inhibition at 10 µM [1] [%] | IC50 at 48 h [2] [µM] | inhibition at 10 µM [3] [%] | IC50 [3] [µM] | inhibition at 10 µM [4] [%] | IC50 [4] [µM] | inhibition at 10 µM [5] [%] | IC50 [5] [µM] | IC50 [6] [µM] | inhibition at 10 µM [6] [%] |
| --- | --- | --- | --- | --- | --- | --- | --- | --- | --- | --- | --- |
| 230 to 232 | Nn1c(SCC(=O)Nc2cc(-c3c[nH]c4ccccc34)n[nH]2)nnc1-c1c[nH]c2ccccc12 [Compound 11n, N-(3-(1H-indol-3-yl)-1H-pyrazol-5-yl)-2-((4-amino-5-(1H-indol-3-yl)-4H-1,2,4-triazol-3-yl)thio)acetamide] | 44.7 ± 4.73 | 5.02 ± 1.29 | 97.1 ± 0.377 | 4.38 ± 0.45 | 80.5 ± 3.62 | 2.76 ± 1.74 | 31 ± 0.996 | 31.3 ± 3.29 | 10.4 ± 0.46 | 56.6 ± 12.9 |
| 263 to 266 | Nn1c(SCC(=O)Nc2cc(-c3c[nH]c4ccccc34)n[nH]2)nnc1-c1ccccc1O [Compound 11q, N-(3-(1H-indol-3-yl)-1H-pyrazol-5-yl)-2-((4-amino-5–(2-hydroxyphenyl)-4H-1,2,4-triazol-3-yl)thio)acetamide] | 99.3 ± 0.02 | 2.66 ± 1.29 | 99.2 ± 1.2 | 2.34 ± 0.34 | 84.7 ± 11.4 | 8.23 ± 7.58 | 89.4 ± 2.21 | 4.14 ± 1.71 | 2.89 ± 0.15 | 86.3 ± 0.332 |
| 241 to 243 | Nn1c(SCC(=O)Nc2cc(-c3c[nH]c4ccccc34)n[nH]2)nnc1-c1ccc[nH]1 [Compound 11r, N-(3-(1H-indol-3–yl)-1H-pyrazol-5-yl)-2-((4-amino-5-(1H-pyrrol-2-yl)-4H-1,2,4-triazol-3-yl)thio)acetamide] | 72.3 ± 5.76 | 1.53 ± 0.93 | 95 ± 2.52 | 1.84 ± 0.66 | 96.5 ± 1.22 | 1.75 ± 0.07 | 94.2 ± 1.81 | 2.72 ± 0.26 | 2.73 ± 1.05 | 79.4 ± 9.21 |
